Measured values: patent publication US8980906B2, “Pyridonemorphinan analogs and biological activity on opioid receptors” (Purdue Pharma L.P., priority 2012, dated 2015)

Assays:
μ-opioid receptor [1] = target: T1, μ-opioid receptor (Homo sapiens (Human), UniProt P35372); assay: μ-opioid receptor radioligand dose-displacement binding assay ([3H]-diprenorphine); details: binding affinity, [3H]-diprenorphine displacement; read-out: Ki (nM) Opioid Receptor μ
Description: μ-Opioid Receptor Binding Assay Procedures: Radioligand dose-displacement binding assays for μ-opioid receptors used 0.3 nM [^3H]-diprenorphine (Perkin Elmer, Shelton, Conn.), with […] membrane protein/well in a final volume of 500 μl binding buffer (10 mM MgCl2, 1 mM EDTA, 5% DMSO, 50 mM HEPES, pH 7.4). Reactions were carried out in the absence or presence of increasing concentrations of unlabeled naloxone. All reactions were conducted in 96-deep well polypropylene plates for 2 hours at room temperature. Binding reactions were terminated by rapid filtration onto 96-well Unifilter GF/C filter plates (Perkin Elmer, Shelton, Conn.), presoaked in 0.5% polyethylenimine using a 96-well tissue harvester (Perkin Elmer, Shelton, Conn.) followed by performing three filtration washes with 500 μl of ice-cold binding buffer. Filter plates were subsequently dried at 50° C. for 2-3 hours. BetaScint scintillation cocktail (Perkin Elmer, Shelton, Conn.) was added (50 μl/well), and plates were counted using a Packard Top-Count for 1 min/well. The data were analyzed using the one-site competition curve fitting functions in GraphPad PRISM™ v. 3.0 or higher (San Diego, Calif.), or an in-house function for one-site competition curve-fitting.

κ-opioid receptor [2] = target: T2, κ-opioid receptor (Homo sapiens (Human), UniProt P41145); assay: κ-opioid receptor radioligand dose-displacement binding assay ([3H]-U69,593); details: binding affinity, [3H]-U69,593 displacement
How it was run: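 Competition binding with 0.4 nM [3H]-U69,593 and 15 μg membrane protein from HEK 293 cells expressing recombinant human κ receptor, in 50 mM Tris pH 7.4 with 5% DMSO, 1 h at about 25 °C. Nonspecific binding defined with 10 μM naloxone or U69,593; bound ligand collected by GF/C filtration and scintillation counting.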

δ-opioid receptor = δ-opioid receptor (Homo sapiens (Human), UniProt P41143); assay: δ-opioid receptor radioligand dose-displacement binding assay ([3H]-Naltrindole); details: binding affinity, [3H]-Naltrindole displacement
Description: δ-Opioid Receptor Binding Assay Procedures: δ-Opioid Receptor Binding Assay Procedures were conducted as follows. Radioligand dose-displacement assays used 0.2 nM [^3H]-Naltrindole (Perkin Elmer, Shelton, Conn.; 33.0 Ci/mmole) with 5 μg membrane protein (Perkin Elmer, Shelton, Conn.) in a final volume of 500 μl binding buffer (5 mM MgCl2, 5% DMSO, 50 mM Trizma base, pH 7.4). Non-specific binding was determined in the presence of 25 μM unlabeled naloxone. All reactions were performed in 96-deep well polypropylene plates for 1 hour at a temperature of about 25° C. Binding reactions were terminated by rapid filtration onto 96-well Unifilter GF/C filter plates (Perkin Elmer, Shelton, Conn.) presoaked in 0.5% polyethylenimine (Sigma). Harvesting was performed using a 96-well tissue harvester (Perkin Elmer, Shelton, Conn.) followed by five filtration washes with 500 μl ice-cold binding buffer. Filter plates were subsequently dried at 50° C. for 1-2 hours. Fifty μl/well scintillation cocktail (Perkin Elmer, Shelton, Conn.) was added and plates were counted in a Packard Top-Count for 1 min/well.

μ-opioid receptor [3] = target: T1, μ-opioid receptor; assay: μ-opioid receptor [35S]GTPγS functional assay, HEK-293 or CHO cells; format: biochemical; details: for Emax: relative to DAMGO, HEK-293 or CHO cells
κ-opioid receptor [4] = target: T2, κ-opioid receptor; assay: κ-opioid receptor [35S]GTPγS functional assay, HEK-293 or CHO cells; format: biochemical; details: for Emax: relative to U69,593, HEK-293 or CHO cells
ORL-1 receptor = ORL-1 receptor (Homo sapiens (Human), UniProt P41146); assay: ORL-1 receptor radioligand binding assay ([3H]-nociceptin); details: binding affinity, [3H]-nociceptin displacement
Description: ORL-1 Receptor Binding Assay Procedure: Membranes from recombinant HEK-293 cells expressing the human opioid receptor-like receptor (ORL-1) (Perkin Elmer, Shelton, Conn.) were prepared by lysing cells in ice-cold hypotonic buffer (2.5 mM MgCl2, 50 mM HEPES, pH 7.4) (10 ml/10 cm dish) followed by homogenization with a tissue grinder/Teflon pestle. Membranes were collected by centrifugation at 30,000×g for […] at 4° C. and pellets resuspended in hypotonic buffer to a final concentration of 1-3 mg/ml. Protein concentrations were determined using the BioRad protein assay reagent with bovine serum albumen as standard. Aliquots of the ORL-1 receptor membranes were stored at −80° C.
Radioligand binding assays (screening and dose-displacement) used 0.1 nM [^3H]-nociceptin (Perkin Elmer, Shelton, Conn.; 87.7 Ci/mmole) with 12 μg membrane protein in a final volume of 500 μl binding buffer (10 mM MgCl2, 1 mM EDTA, 5% DMSO, 50 mM HEPES, pH 7.4). Non-specific binding was determined in the presence of […] unlabeled nociceptin (American Peptide Company). All reactions were performed in 96-deep well polypropylene plates for 1 h at room temperature. Binding reactions were terminated by rapid filtration onto 96-well Unifilter GF/C filter plates (Perkin Elmer, Shelton, Conn.) presoaked in 0.5% polyethylenimine (Sigma). Harvesting was performed using a 96-well tissue harvester (Perkin Elmer, Shelton, Conn.) followed by three filtration washes with 500 μl ice-cold binding buffer. Filter plates were subsequently dried at 50° C. for 2-3 hours. Fifty μl/well scintillation cocktail (Perkin Elmer, Shelton, Conn.) was added and plates were counted in a Packard Top-Count for 1 min/well. The data from screening and dose-displacement experiments were analyzed using Microsoft Excel and the curve fitting functions in GraphPad PRISM™, v. 3.0 or higher, respectively, or an in-house function for one-site competition curve-fitting.

Sequence of δ-opioid receptor (P41143 whole entry, looked up): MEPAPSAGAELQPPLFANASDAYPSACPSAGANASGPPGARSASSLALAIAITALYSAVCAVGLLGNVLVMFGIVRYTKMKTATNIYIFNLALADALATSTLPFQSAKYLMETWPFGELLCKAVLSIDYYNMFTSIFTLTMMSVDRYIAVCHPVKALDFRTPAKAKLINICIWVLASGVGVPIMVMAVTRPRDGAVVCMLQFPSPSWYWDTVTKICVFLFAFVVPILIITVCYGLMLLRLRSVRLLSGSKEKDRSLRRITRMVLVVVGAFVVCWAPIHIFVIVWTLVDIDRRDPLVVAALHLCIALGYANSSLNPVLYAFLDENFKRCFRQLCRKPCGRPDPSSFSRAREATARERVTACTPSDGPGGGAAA

Structure (SMILES) | Ki (μ-opioid receptor [1]) [nM] | Ki (κ-opioid receptor [2]) [nM] | Ki (δ-opioid receptor) [nM] | EC50 (μ-opioid receptor [3]) [nM] | Emax (μ-opioid receptor [3]) [%] | EC50 (κ-opioid receptor [4]) [nM] | Emax (κ-opioid receptor [4]) [%] | Ki (ORL-1 receptor) [nM]
COC(=O)c1cc2c([nH]c1=O)C[C@]13CCN(CC4CC4)[C@H](Cc4ccc(OC)cc41)[C@@H]3C2 [Compound 3, (6R,6aR,12aS)-methyl 15-(cyclopropylmethyl)-2-methoxy-10-oxo-6,6a,7,10,11,12-hexahydro-5H-6,12a-(epiminoethano)naphtho[2,1-g]quinoline-9-carboxylate] | 449 ± 171 | 3.85 ± 1.09 | 18.9 ± 7.84 | 34.9 ± 6.84 | 15.7 ± 3.48 | 39.1 ± 2.6 | 52.3 ± 1.76 | –
NC(=O)CNC(=O)c1cc2c([nH]c1=O)C[C@]13CCN(CC4CC4)[C@H](Cc4ccc(O)cc41)[C@@H]3C2 [Compound 21, (6R,6aR,12aS)—N-(2-amino-2-oxoethyl)-15-(cyclopropylmethyl)-2-hydroxy-10-oxo-6,6a,7,10,11,12-hexahydro-5H-6,12a-(epiminoethano)naphtho[2,1-g]quinoline-9-carboxamide] | 0.59 ± 0.15 | – | – | 1.73 ± 0.41 | 23.7 ± 2.19 | 4.19 ± 0.79 | 41 ± 5.29 | 2.04 ± 0.49
C[C@H](NC(=O)c1cc2c([nH]c1=O)C[C@]13CCN(CC4CC4)[C@H](Cc4ccc(O)cc41)[C@@H]3C2)C(N)=O [Compound 22, (6R,6aR,12aS)—N—((S)-1-amino-1-oxopropan-2-yl)-15-(cyclopropylmethyl)-2-hydroxy-10-oxo-6,6a,7,10,11,12-hexahydro-5H-6,12a-(epiminoethano)naphtho[2,1-g]quinoline-9-carboxamide] | 0.56 ± 0.11 | – | – | 4.22 ± 1 | 30 ± 3.21 | 9.89 ± 2.4 | 36.7 ± 2.73 | 1.2 ± 0.21
